# Source: patent US9144573B2, “Prostaglandin transporter inhibitors” (Albert Einstein College of Medicine of Yeshiva University, priority 2006, dated 2015)
# Entries after “also recorded” stand apart in the source; their conditions may differ.
# Assays:
# [1] = molecular target: T1, prostaglandin transporter (PGT) (Rattus norvegicus, UniProt Q00910); test: PGE2 uptake by MDCK cells stably expressing PGT; assay type: cell-based
# T1 construct: GFP; expressed in transfected cells
# Description: MDCK or 3T3 cells were seeded at 15-20% confluence on 24-well plates. The day on which the cells were seeded was considered day 1. PGE2 uptake experiments were conducted on day 4. All of the PGE2 uptake experiments were conducted at room temperature. On day 4, cells were washed twice with Waymouth buffer (135 mM NaCl, 13 mM H-Hepes, 13 mM Na-Hepes, 2.5 mM CaCl2, 1.2 mM MgCl2, 0.8 mM MgSO4, 5 mM KCl, and 28 mM D-glucose). Then 200 μL of Waymouth buffer containing [^3H]PGE2 was added to each well. At the designated time, the uptake of [^3H]PGE2 was stopped by aspiration of uptake buffer; this was followed by immediate washing twice with 500 μL of chilled Waymouth buffer. Cells were then lysed with 100 μL lysis buffer containing 0.25% SDS and 0.05 N NaOH. 1.5 mL of scintillation solution was added to each well, and intracellular [^3H]PGE2 was counted by MicroBeta Counter.
# For preliminary screening of the compounds, 25 μL of Waymouth buffer containing small organic compounds were added to each well; this was immediately followed by the addition of 175 μL of Waymouth buffer containing [^3H]PGE2. In each well, the total volume of uptake medium was 200 μL. Organic compounds were first dissolved in DMSO and then diluted in Waymouth buffer. The percent inhibition of [^3H]PGE2 uptake by compounds was calculated as [(uptakevehicle−uptakeinhibitor)÷(uptakevehicle)]×100.
# The initial velocities at various initial extracellular concentrations of PGE2 were determined from the PGE2 uptake in the first 2 minutes; these were linear over the time course of PGE2 uptake. Ki values were obtained by curve fitting the reciprocal of initial velocities of PGE2 uptake versus the reciprocal of extracellular PGE2 concentrations at various concentrations of the inhibitors. At low PGE2 concentrations, the extracellular concentrations were taken as ^3H labeled PGE2, which has a specific activity of 500 μCi/mol. At high concentrations of PGE2, a mixture of ^3H labeled and unlabeled PGE2 was made to a final specific activity of 25 μCi/mol.
# EP4 = test: PGE2 binding to EP4 in membranes of MDCK cells expressing PGT; assay type: cell-based, human; settings: 5 μM, 10 minutes at 37° C.
# Description: EP4 expression in MDCK cells that constitutively express PGT was tested by determining PGE2 binding to the cells. Wild type MDCK cells and MDCK cells stably expressing PGT were transiently transfected with human cDNA of EP4 (UMR cNDA Resource Center, www.cdna.org). About 30 hours after transfection, the cells were incubated in Waymouth buffer containing 0 and 20 nM of unlabeled PGE2, and either 4% vehicle (DMSO) or 5 μM T26A, for 10 minutes at 37° C. The cells were then washed with PBS buffer and lysed the cells with lysing buffer containing 10 mM TrisHCl, pH, 7.5, 5 mM EDTA, 100 nM okadaic acid, and 20 μM indomethacin. The cells were then harvested and homogenized using a Potter-Elvehiem homogenizer in an ice cold solution containing 10 mM Tris-HCl, pH. 7.4, 1 mM EDTA, 0, 1 mM phenylmethylsulfonyl fluoride, 20 μM indomethacin, then centrifuged the homogenate at 800 g for 5 minutes. The supernatant was transferred to another tube and centrifuged at 19000 rpm for 45 minutes. The supernatant was then discarded and the pellets washed with buffer A containing 20 mM HEPES-NaOH, pH. […] EP4 bound to ^3H-PGE2 were quantified as described by Negishi et al., 1987. Nonspecific binding was determined by using 1000-fold excess of unlabeled PGE2 in the incubation mixture. The specific binding was calculated by subtracting the nonspecific bind value from the total binding value (Nishigaki et al., 1996).
# [2] = Endogenous PGE2 in circulating blood after jugular vein injection; assay type: in vivo, rats; settings: 300 μL of 1 mM, blood 10 minutes later
# Description: Either 300 μL vehicle (4% DMSO and 4% cremophor in water) or 300 μL of 1 mM T26A was injected into the jugular vein of anesthetized rats (300-325 g weight). One mL of blood was obtained from the carotid artery 10 minutes later, PGE2 in blood samples was measured using PGE2 EIA kit from Caymanchem. […] This finding is consistent with the model advanced in Example 2 (FIG. 8). Since PGT transports PGE2 into the cell, inhibiting PGT would be expected to inhibit removal of PGE2 from blood to be internalized and degraded.
# [3] = Degradation of exogenously-administered PGE2; assay type: in vivo, rats; settings: 300 μL of 1 mM IV, PGE2 injected ten minutes later
# Description: Either 300 μL vehicle (4% DMSO and 4% cremophor in water) or 300 μL of 1 mM T26A was injected into the jugular vein of anesthetized rats (300-325 g weight). Ten minutes later 100 μL of 1 ng/μL PGE2 was injected. One mL blood was withdrawn from the carotid artery at 1, 3, 5, and 10 min after PGE2 injection. PGE2 in blood samples was measured using PGE2 EIA kit from Caymanchem. […] This is also consistent with the FIG. 8 model. Inhibiting PGE2 transport into the cell reduces its intracellular degradation.
# [4] = Chronic oral administration in drinking water: blood PGE2, urine PGE2, bleeding time; assay type: in vivo, mice; settings: 2 mM in drinking water, 16 days
# Description: Regular water, vehicle (2% DMSO and 2% cremophor) in drinking water, or 2 mM T26A in drinking water was administered to 17 week old mice for 16 days. At the end of the experiment, we withdrew blood by cardiac puncture. PGE2 in blood samples was measured by using PGE2 EIA kit from Caymanchem.
# The mice described above pertaining to FIG. 17 were placed in metabolic cages. Six days after they adjusted to the caged condition (on regular diet and water) regular drinking water, vehicle (2% DMSO and 2% cremophor) in drinking water, or 2 mM T26A in drinking water was administered for 16 days. Urine was collected daily. PGE2 in urine samples was measured using PGE2 EIA kit from Caymanchem. […] This is also consistent with the FIG. 8 model. Inhibiting PGE2 transport into the cell reduces its intracellular degradation such that more is secreted without intracellular degradation.
# At the end of the experiment shown in FIGS. 17-18, bleeding time was measured using the tail cut method. About 1 cm tails of restrained mice were cut off; the diameter of the cut was kept the same for all mice. The emerging blood was blotted every 15 seconds without touching the wound. Bleeding time was measured as the point at which bleeding had stopped for 1 minute. Results are shown graphically in FIG. 19. […] It is believed that the blockade of endothelial PCT allows intravascular accumulation of PGE2 or prostacyclin, either of which can inhibit platelet aggregation.
structure (smiles),measurement,setting,value
[N-]=[N+]=NCCOCCOCCNC(=O)c1ccc(Nc2nc(NCCOCCOCCNC(=O)c3ccccc3)nc(Nc3ccc(O)cc3)n2)cc1 [T26A],Ki,[1]; Example 2,300 nM
same,inhibition at 5 µM,"[1]; MDCK, read-out: % Inhib. at 5 μM",92%
same,Ki,[1]; Table 2,380 nM
same,mode of inhibition,[1]; double reciprocal analysis,competitively inhibits
same,effect on PGT-induced increase of PGE2 binding to EP4,EP4,abrogates this effect
same,plasma PGE2 concentrations,[2],greater than two-fold increase; also recorded: increases endogenous PGE2
same,degradation of exogenously-administered PGE2,[3],inhibited PGE2 degradation; also recorded: reduces the degradation
same,plasma PGE2 levels,[4]; mice,increased plasma PGE2 levels four-fold
same,urinary excretion of endogenous PGE2,[4]; mice,increased urinary excretion of endogenous PGE2; also recorded: increases PGE2 excretion in urine
same,bleeding time,[4]; tail cut method,increases bleeding time
